{
  "source": "patent US20240024262A1",
  "about": "“USE OF VALERIC ACID IN PREPARATION OF DRUG FOR PREVENTING AND TREATING DIABETES” (Harbin Medical University, priority 2022, published 2024)",
  "key": {"[1]": {"system": "cell proliferation and differentiation pathway", "assay": "WB and ELISA of classical proteins in a cell proliferation and differentiation pathway in mouse pancreatic tissues", "assay_type": "in vivo, mice", "experimental": "(§1) During the subsequent test, in order to observe pathological morphologies of animal tissues, paraffin sections of mouse tissues were made and subjected to HE staining, immunohistochemical staining and immunofluorescence staining. Also, mouse pancreatic tail tissues in a valeric acid intervention group and a control group were taken out from the −80° C. refrigerator and underwent TMT labeled quantitative proteome detection of the animal tissues, and differential proteins were subjected to a Western Blot test and a real-time fluorescence quantitative polymerase chain reaction (QRT PCR) test for the animal tissues to verify test results."}, "[2]": {"system": "PI3k/Pdpk1/Akt insulin metabolic pathway", "assay": "WB and ELISA of key proteins of PI3k/Pdpk1/Akt insulin metabolic pathway in mouse pancreatic tissues", "assay_type": "in vivo, mice", "conditions": "p value <0.05", "experimental": "as §1"}, "[3]": {"system": "3-phosphoinositide dependent protein kinase 1 (Pdpk1)", "assay": "TMT proteomic detection of pancreatic tissues, HFD+VA vs HFD+PBS", "assay_type": "in vivo, mice", "conditions": "TMT proteomics", "experimental": "as §1\nThrough functional annotation of GO and KEGG databases, metabolic pathways such as energy and glycolipid metabolism, glycogen synthesis, redox and phosphorylation are enriched (FIG. 19)."}, "[4]": {"system": "db/db mouse islet tissues", "assay": "Histopathology of pancreatic tissues of db/db mice (HE, immunofluorescence)", "assay_type": "in vivo", "experimental": "During the subsequent test, in order to observe pathological morphologies of animal tissues, paraffin sections of mouse tissues were made and subjected to HE staining, immunohistochemical staining and immunofluorescence staining. […] Histopathological examination is also performed on the pancreatic tissues of db/db mice."}, "[5]": {"assay": "Serum tumor markers CEA and CA19-9 by ECLIA in high-fat fed mice", "assay_type": "in vivo", "excerpt": "Finally, to detect whether tumor invasion was caused during intervention or not, contents of a carbohydrate antigen (CA 19-9) and a carcinoembryonic antigen (CEA) in mouse serum were detected and compared by using automatic electrochemiluminescence immunoassay system Cobas® 8000 (Roche, USA) and electrochemiluminescence immunoassay (ECLIA)."}, "[6]": {"system": "mouse pancreatic tissues (islet β cells)", "assay": "Histopathology of pancreas of high-fat fed mice (HE, ERK immunohistochemistry, immunofluorescence)", "assay_type": "in vivo", "experimental": "In order to detect a blood glucose homeostasis level and an insulin function of each mouse, an oral glucose tolerance test (OGTT) for the mice was performed. At the night before this test, test mice were fasted but not water for 16 h and transferred from a feeding room to a clean experimental operation room, so that the animals could adapt to the environment. Before the OGTT started, a weight of each mouse was accurately weighed, and an injection dose of glucose was calculated according to 2 mg/g body weight, and a tail was cut for collecting blood at 0 minute, 15 minutes, 30 minutes, 60 minutes and 120 minutes after intragastric injection of the glucose. A first drop of blood after tail cutting was discarded, and then concentrations of blood glucose (mmol/L) were continuously detected using an Accu-Chek blood glucose meter (Roche diagnosis, USA). The test mice were fasted for 12 h at the night before sampling, and were anesthetized by intraperitoneal injection of a 10% chloral hydrate-containing solution. After the intraperitoneal cavities of the mice were cut, blood was collected by apical blood collection, and the test mice were killed. After being collected, blood samples were left for still standing for 2 h at the room temperature, and then centrifuged for 15 min at […], serum at the upper layer was sucked, and then biochemical detection was performed immediately. After the blood samples were collected, pancreatic tissues of the mice were immediately cut off so as to prevent pancreatic dissolution, and heads and tails of pancreas were separately stored. Then other tissues of the mice were extracted. Pictures of tissue morphologies of various parts of the mice were photographed and stored, and weights of tissues were weighed and precisely recorded. Subsequently, the extracted tissues were divided into two parts, one of the two parts was sub-packed into an EP tube, immediately rapidly frozen in liquid nitrogen and then transferred to a −80° C. refrigerator for cryopreservation; and the other part was sub-packed into an EP tube containing 4% paraformaldehyde to be fixed for making pathological tissue sections later.\nas §1"}},
  "data": [
    {"smiles": "CCCCC(=O)O", "note": "[valeric acid]", "values": [
      {"measurement": "expression level of ERK1/2", "setting": "[1]", "value": "significantly increased"},
      {"measurement": "expression level of FoxO1A", "setting": "[1]", "value": "significantly increased"},
      {"measurement": "expression level of MafA", "setting": "[1]", "value": "significantly increased"},
      {"measurement": "expression level of Nkx6.1", "setting": "[1]", "value": "significantly increased"},
      {"measurement": "expression level of PDX1", "setting": "[1]", "value": "significantly increased"},
      {"measurement": "expression level of p-ERK1/2", "setting": "[1]", "value": "significantly increased"},
      {"measurement": "expression level of Akt", "setting": "[2]", "value": "significantly increased"},
      {"measurement": "expression level of PIPS", "setting": "[2]", "value": "significantly increased"},
      {"measurement": "expression level of Pdpk1", "setting": "[2]", "value": "significantly increased"},
      {"measurement": "expression level of mTOR", "setting": "[2]", "value": "significantly increased"},
      {"measurement": "expression level of p-Akt", "setting": "[2]", "value": "significantly increased"},
      {"measurement": "expression level of p-mTOR", "setting": "[2]", "value": "significantly increased"},
      {"measurement": "expression level of Pdpk1 in the mouse pancreatic tissues", "setting": "[3]", "value": "significantly increased"},
      {"measurement": "islet area", "setting": "[4]; HE staining", "value": "increased significantly"},
      {"measurement": "islet cells", "setting": "[4]; HE staining", "value": "increased significantly"},
      {"measurement": "proportion of Ki67 (+)", "setting": "[4]; Ki67/insulin staining", "value": "increased significantly"},
      {"measurement": "ratio of the insulin to glucagon", "setting": "[4]; immunofluorescence", "value": "increased significantly"},
      {"measurement": "CA19-9 in mouse serum", "setting": "[5]; HF+VA mouse serum", "value": "< 0.600", "unit": "U/mL"},
      {"measurement": "CEA in mouse serum", "setting": "[5]; HF+VA mouse serum", "value": "< 0.200", "unit": "U/mL"},
      {"measurement": "cancer invasion", "setting": "[5]; from CEA and CA19-9 serum markers", "value": "does not occur"},
      {"measurement": "proportion of ERK positive areas", "setting": "[6]; ERK staining of paraffin sections", "value": "increased significantly"},
      {"measurement": "islet areas", "setting": "[6]; HE staining, HF-V group", "value": "obviously enlarged"},
      {"measurement": "number of islets", "setting": "[6]; HE staining, HF-V group", "value": "increased"},
      {"measurement": "number of β cells in the islet", "setting": "[6]; HE staining, HF-V group", "value": "significantly increased"},
      {"measurement": "number of Ki67 stained nuclei in the pancreas", "setting": "[6]; insulin/Ki67/DAPI immunofluorescence", "value": "increased significantly"},
      {"measurement": "secretion proportion of the insulin in the pancreas", "setting": "[6]; insulin/glucagon/DAPI immunofluorescence", "value": "increased significantly"}
    ]}
  ]
}
